Laboratory results reported in ChEMBL document CHEMBL5576094, “A Diterpenoid of the Medicinal Plant Andrographis paniculata Targets Cutaneous TRPV3 Channel and Relieves Itch” (J Nat Prod, 2024).
Calls of active or inactive are those of the source. No cut-off for these calls is given here.

Legend:
Mus musculus [1] = organism: Mus musculus; experiment: Antipruritic activity in carvacrol-induced scratching C57B/6 mouse model assessed as inhibition of neck scratching behavior at 10 uM, ID pretreated for 30 mins followed by carvacrol stimulation and measured for 30 mins relative to control; type: functional; settings: C57B/6, 1 h, time 60 min
Mus musculus [2] = organism: Mus musculus; experiment: Antipruritic activity in carvacrol-induced scratching C57B/6 mouse model assessed as inhibition of neck scratching behavior at 50 uM, ID pretreated for 30 mins followed by carvacrol stimulation and measured for 30 mins relative to control; type: functional; settings: C57B/6, 1 h, time 60 min
[3] = target: T1, Transient receptor potential cation channel subfamily V member 3 (Homo sapiens) (UniProt Q8NET8); experiment: Inhibition of human TRPV3 expressed in CHO cells assessed as reduction in 2-APB-induced intracellular calcium flux at 20 uM measured for 60 mins by Fluo-4-AM dye based fluorescence assay; type: cell-based
T1 sequence (whole entry): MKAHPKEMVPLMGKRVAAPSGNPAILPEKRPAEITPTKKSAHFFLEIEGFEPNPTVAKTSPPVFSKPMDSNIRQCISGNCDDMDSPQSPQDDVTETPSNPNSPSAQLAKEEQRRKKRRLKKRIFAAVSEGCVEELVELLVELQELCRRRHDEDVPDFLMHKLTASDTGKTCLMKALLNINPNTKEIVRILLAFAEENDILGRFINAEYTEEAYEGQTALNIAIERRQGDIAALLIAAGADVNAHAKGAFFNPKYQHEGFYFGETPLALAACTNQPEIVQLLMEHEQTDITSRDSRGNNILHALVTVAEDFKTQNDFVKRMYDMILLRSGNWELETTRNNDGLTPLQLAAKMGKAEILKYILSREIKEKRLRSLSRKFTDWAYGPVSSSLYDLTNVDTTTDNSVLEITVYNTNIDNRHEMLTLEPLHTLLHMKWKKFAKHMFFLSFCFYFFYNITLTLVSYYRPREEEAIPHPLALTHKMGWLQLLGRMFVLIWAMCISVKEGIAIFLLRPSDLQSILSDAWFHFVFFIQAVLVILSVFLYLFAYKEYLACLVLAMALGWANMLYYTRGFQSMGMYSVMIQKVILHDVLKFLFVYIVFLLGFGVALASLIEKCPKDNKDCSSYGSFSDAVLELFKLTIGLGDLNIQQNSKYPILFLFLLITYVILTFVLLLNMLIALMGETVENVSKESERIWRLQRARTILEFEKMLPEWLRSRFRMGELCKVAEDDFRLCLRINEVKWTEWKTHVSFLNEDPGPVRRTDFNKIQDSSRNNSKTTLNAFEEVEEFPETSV

[4] = Induction of pruritic reaction in ICR mouse assessed as number of scratching bouts at 30 uM, ID measured within 30 mins (reference value: 6 +/- 1 No_Unit); type: toxicity; settings: other, 0.5 h
[5] = target: T1, Transient receptor potential cation channel subfamily V member 3 (Homo sapiens); experiment: Inhibition of human TRPV3 expressed in CHO cells assessed as reduction in 2-APB induced maximal channel current at voltage ramps from -80 to +80 mV by whole-cell patch clamp electrophysiology relative to control; type: cell-based
[6] = target: T1, Transient receptor potential cation channel subfamily V member 3 (Homo sapiens); experiment: Inhibition of human TRPV3 expressed in CHO cells assessed as reduction in 2-APB induced channel current at 10 uM at +80 mV by whole-cell patch clamp electrophysiology; type: cell-based
[7] = target: Transient receptor potential cation channel subfamily V member 1 (Rattus norvegicus) (UniProt O35433); experiment: Inhibition of rat TRPV1 expressed in CHO cells assessed as reduction in capsaicin-induced intracellular calcium flux at 20 uM measured for 60 mins by Fluo-4-AM dye based fluorescence assay; type: cell-based
[8] = target: T1, Transient receptor potential cation channel subfamily V member 3 (Homo sapiens); experiment: Inhibition of human TRPV3 expressed in CHO cells assessed as reduction in 2-APB induced channel current at +80 mV by whole-cell patch clamp electrophysiology relative to control; type: cell-based
[9] = target: T2, Acid-sensing ion channel 3 (Homo sapiens) (UniProt Q9UHC3); experiment: Inhibition of human ASIC3 expressed in Xenopus Oocytes at 20 uM at holding potential of -50 mV by whole-cell electrophysiology; type: cell-based; settings: Oocyte
T2 sequence (whole entry): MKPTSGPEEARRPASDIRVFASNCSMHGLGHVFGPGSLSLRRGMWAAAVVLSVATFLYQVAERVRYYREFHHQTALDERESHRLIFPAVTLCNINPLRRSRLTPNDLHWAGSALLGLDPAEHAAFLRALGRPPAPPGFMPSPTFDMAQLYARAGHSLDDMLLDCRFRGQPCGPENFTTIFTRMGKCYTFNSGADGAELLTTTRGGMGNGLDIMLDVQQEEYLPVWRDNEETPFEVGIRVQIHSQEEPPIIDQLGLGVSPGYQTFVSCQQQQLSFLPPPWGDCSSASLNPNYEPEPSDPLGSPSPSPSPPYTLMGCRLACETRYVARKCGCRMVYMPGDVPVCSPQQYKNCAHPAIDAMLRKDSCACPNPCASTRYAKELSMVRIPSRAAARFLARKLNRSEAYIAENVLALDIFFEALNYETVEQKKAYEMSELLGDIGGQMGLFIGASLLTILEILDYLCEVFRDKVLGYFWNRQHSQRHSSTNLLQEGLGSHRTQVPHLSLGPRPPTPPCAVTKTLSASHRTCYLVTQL

Mus musculus [10] = organism: Mus musculus; experiment: Antipruritic activity in histamine-induced scratching ICR mouse model assessed as inhibition of neck scratching behavior at 3 uM, ID pretreated for 30 mins followed by histamine stimulation and measured after 10 to 30 mins; type: functional, organism-based; settings: time 40-60 min
[11] = target: Transient receptor potential cation channel subfamily V member 4 (Homo sapiens) (UniProt Q9HBA0); experiment: Inhibition of human TRPV4 expressed in CHO cells assessed as reduction in GSK1016790A-induced intracellular calcium flux at 20 uM measured for 60 mins by Fluo-4-AM dye based fluorescence assay; type: cell-based
Mus musculus [12] = organism: Mus musculus; experiment: Antipruritic activity in histamine-induced scratching ICR mouse model assessed as number of scratching bouts at 30 uM, ID pretreated for 30 mins followed by histamine stimulation and measured for 30 mins (reference value: 123 +/- 6); type: functional; settings: time 60 min, 1 h
[13] = target: T3, Transient receptor potential cation channel subfamily V member 3 (Homo sapiens, UniProt Q8NET8); experiment: Inhibition of TRPV3 in human HaCaT cells assessed as reduction in carvacrol-induced calcium influx measured for 60 mins by Fluo-4-AM dye based fluorescence assay; type: cell-based
T3 sequence (Q8NET8 whole entry): T1 sequence (whole entry)

Mus musculus [14] = organism: Mus musculus; experiment: Antipruritic activity in histamine-induced scratching ICR mouse model assessed as number of scratching bouts at 0.3 uM, ID pretreated for 30 mins followed by histamine stimulation and measured for 30 mins (reference value: 123 +/- 6); type: functional; settings: time 60 min, 1 h
Mus musculus [15] = organism: Mus musculus; experiment: Antipruritic activity in carvacrol-induced scratching ICR mouse model assessed as number of scratching bouts at 100 uM, ID pretreated for 30 mins followed by carvacrol stimulation and measured for 30 mins (reference value: 174 +/- 7); type: functional; settings: time 60 min, 1 h
Mus musculus [16] = organism: Mus musculus; experiment: Antipruritic activity in carvacrol-induced scratching ICR mouse model assessed as number of scratching bouts at 30 uM, ID pretreated for 30 mins followed by carvacrol stimulation and measured for 30 mins (reference value: 174 +/- 7); type: functional; settings: time 60 min, 1 h
[17] = target: T3, Transient receptor potential cation channel subfamily V member 3; experiment: Inhibition of human TRPV3 expressed in CHO cells assessed as reduction in 2-APB induced channel current at +80 mV by whole-cell patch clamp electrophysiology; type: cell-based
Mus musculus [18] = organism: Mus musculus; experiment: Antipruritic activity in histamine-induced scratching ICR mouse model assessed as inhibition of neck scratching behavior at 3 uM, ID pretreated for 30 mins followed by histamine stimulation and measured for 10 mins relative to control; type: functional; settings: 40 min
[19] = target: T1, Transient receptor potential cation channel subfamily V member 3 (Homo sapiens); experiment: Inhibition of TRPV3 in human HaCaT cells assessed as reduction in carvacrol-induced calcium influx measured for 60 mins by Fluo-4-AM dye based fluorescence assay relative to control; type: cell-based
[20] = Induction of pruritic reaction in ICR mouse assessed as number of scratching bouts at 100 uM, ID measured within 30 mins (reference value: 6 +/- 1 No_Unit); type: toxicity; settings: other, 0.5 h
[21] = target: T1, Transient receptor potential cation channel subfamily V member 3 (Homo sapiens); experiment: Inhibition of human TRPV3 expressed in CHO cells assessed as reduction in 2-APB induced channel current at 10 uM at -80 mV by whole-cell patch clamp electrophysiology; type: cell-based
[22] = target: T4, Acid-sensing ion channel 1 (Rattus norvegicus) (UniProt P55926); experiment: Inhibition of rat ASIC1a expressed in Xenopus Oocytes at 20 uM at holding potential of -50 mV by whole-cell electrophysiology; type: cell-based; settings: Oocyte
T4 sequence (whole entry): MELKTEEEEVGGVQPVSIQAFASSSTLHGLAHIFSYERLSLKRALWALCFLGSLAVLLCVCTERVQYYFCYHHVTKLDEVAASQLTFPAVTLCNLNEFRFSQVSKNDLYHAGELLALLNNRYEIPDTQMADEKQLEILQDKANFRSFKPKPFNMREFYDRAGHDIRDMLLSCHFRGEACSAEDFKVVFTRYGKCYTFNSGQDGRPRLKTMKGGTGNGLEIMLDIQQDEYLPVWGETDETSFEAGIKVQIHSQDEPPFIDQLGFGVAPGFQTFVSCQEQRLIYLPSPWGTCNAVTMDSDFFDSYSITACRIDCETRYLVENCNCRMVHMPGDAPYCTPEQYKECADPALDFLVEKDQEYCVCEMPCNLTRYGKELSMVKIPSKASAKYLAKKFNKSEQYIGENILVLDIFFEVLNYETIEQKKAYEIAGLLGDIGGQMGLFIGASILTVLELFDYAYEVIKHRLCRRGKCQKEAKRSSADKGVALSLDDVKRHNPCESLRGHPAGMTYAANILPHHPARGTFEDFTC

[23] = target: T1, Transient receptor potential cation channel subfamily V member 3 (Homo sapiens); experiment: Irreversible inhibition of human TRPV3 expressed in CHO cells assessed as reduction in 2-APB induced channel current at 10 uM at +80 mV incubated prior to compound washout followed by 2-APB addition by whole-cell patch clamp electrophysiology; type: cell-based
HaCaT = experiment: Cytotoxicity against human HaCaT cells assessed as reduction in cell viability measured after 24 hrs by MTT assay; type: toxicity, cell-based
[24] = target: Transient receptor potential cation channel subfamily A member 1 (Rattus norvegicus) (UniProt Q6RI86); experiment: Inhibition of rat TRPA1 expressed in CHO cells assessed as reduction in AITC-induced intracellular calcium flux at 20 uM measured for 60 mins by Fluo-4-AM dye based fluorescence assay; type: cell-based
Mus musculus [25] = organism: Mus musculus; experiment: Antipruritic activity in carvacrol-induced scratching ICR mouse model assessed as inhibition of neck scratching behavior at 100 uM, ID pretreated for 30 mins followed by carvacrol stimulation and measured for 30 mins relative to control; type: functional; settings: 1 h, time 60 min
[26] = target: T3, Transient receptor potential cation channel subfamily V member 3; experiment: Inhibition of human TRPV3 expressed in CHO cells assessed as reduction in 2-APB induced channel current at -80 mV by whole-cell patch clamp electrophysiology; type: cell-based
Mus musculus [27] = organism: Mus musculus; experiment: Antipruritic activity in histamine-induced scratching ICR mouse model assessed as number of scratching bouts at 3 uM, ID pretreated for 30 mins followed by histamine stimulation and measured for 30 mins (reference value: 123 +/- 6); type: functional; settings: time 60 min, 1 h
[28] = target: T1, Transient receptor potential cation channel subfamily V member 3 (Homo sapiens); experiment: Inhibition of human TRPV3 expressed in CHO cells assessed as reduction in 2-APB induced channel current at -80 mV by whole-cell patch clamp electrophysiology relative to control; type: cell-based
[29] = target: T1, Transient receptor potential cation channel subfamily V member 3 (Homo sapiens); experiment: Irreversible inhibition of human TRPV3 expressed in CHO cells assessed as reduction in 2-APB induced channel current at 10 uM at -80 mV incubated prior to compound washout followed by 2-APB addition by whole-cell patch clamp electrophysiology; type: cell-based

Sequence of Transient receptor potential cation channel subfamily V member 4 (Homo sapiens) (Q9HBA0 whole entry): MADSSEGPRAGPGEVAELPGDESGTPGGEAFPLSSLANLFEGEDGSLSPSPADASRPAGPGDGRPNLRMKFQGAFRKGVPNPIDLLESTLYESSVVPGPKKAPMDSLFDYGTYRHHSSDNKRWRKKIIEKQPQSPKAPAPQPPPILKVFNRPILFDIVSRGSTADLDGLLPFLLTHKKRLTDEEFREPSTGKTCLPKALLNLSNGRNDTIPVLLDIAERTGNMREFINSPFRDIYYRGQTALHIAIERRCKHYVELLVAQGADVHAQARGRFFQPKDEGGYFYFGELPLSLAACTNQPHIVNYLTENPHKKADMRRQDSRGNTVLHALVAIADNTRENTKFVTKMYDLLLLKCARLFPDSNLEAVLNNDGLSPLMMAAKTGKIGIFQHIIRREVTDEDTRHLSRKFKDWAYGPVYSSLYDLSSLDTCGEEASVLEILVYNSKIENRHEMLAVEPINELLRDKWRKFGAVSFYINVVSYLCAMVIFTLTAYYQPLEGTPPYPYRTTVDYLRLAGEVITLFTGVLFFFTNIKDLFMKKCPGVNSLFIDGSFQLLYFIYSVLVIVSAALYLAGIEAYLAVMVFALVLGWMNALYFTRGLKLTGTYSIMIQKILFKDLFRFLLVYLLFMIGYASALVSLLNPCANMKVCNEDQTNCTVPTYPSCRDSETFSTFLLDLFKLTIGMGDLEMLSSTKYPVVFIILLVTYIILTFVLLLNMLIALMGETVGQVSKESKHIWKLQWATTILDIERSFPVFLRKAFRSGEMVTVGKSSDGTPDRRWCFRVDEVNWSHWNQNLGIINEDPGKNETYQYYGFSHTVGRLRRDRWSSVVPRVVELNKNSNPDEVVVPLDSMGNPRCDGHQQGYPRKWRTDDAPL
Sequence of Transient receptor potential cation channel subfamily V member 1 (Rattus norvegicus) (O35433 whole entry): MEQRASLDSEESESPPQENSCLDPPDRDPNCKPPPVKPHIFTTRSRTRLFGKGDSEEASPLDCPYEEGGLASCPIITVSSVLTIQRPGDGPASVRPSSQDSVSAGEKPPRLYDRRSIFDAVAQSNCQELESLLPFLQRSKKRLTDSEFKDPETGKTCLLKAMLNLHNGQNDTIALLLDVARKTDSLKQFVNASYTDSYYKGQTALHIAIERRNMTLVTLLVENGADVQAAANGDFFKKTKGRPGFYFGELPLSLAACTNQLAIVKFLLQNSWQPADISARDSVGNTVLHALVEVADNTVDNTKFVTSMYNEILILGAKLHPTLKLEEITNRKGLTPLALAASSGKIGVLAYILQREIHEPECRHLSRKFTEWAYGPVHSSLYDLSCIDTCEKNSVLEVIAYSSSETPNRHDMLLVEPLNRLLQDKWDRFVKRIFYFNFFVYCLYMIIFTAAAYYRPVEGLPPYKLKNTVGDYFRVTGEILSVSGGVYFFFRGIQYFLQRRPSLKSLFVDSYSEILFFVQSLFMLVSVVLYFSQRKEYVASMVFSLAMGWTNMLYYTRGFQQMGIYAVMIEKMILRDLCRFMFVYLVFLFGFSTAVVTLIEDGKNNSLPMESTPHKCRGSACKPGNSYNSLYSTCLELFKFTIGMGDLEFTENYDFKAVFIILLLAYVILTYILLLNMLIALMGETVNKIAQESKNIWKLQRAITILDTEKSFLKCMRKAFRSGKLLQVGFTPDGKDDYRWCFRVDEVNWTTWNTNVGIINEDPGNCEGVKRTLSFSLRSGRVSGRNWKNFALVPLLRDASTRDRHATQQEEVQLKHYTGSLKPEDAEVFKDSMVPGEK
Sequence of Transient receptor potential cation channel subfamily A member 1 (Rattus norvegicus) (Q6RI86 whole entry): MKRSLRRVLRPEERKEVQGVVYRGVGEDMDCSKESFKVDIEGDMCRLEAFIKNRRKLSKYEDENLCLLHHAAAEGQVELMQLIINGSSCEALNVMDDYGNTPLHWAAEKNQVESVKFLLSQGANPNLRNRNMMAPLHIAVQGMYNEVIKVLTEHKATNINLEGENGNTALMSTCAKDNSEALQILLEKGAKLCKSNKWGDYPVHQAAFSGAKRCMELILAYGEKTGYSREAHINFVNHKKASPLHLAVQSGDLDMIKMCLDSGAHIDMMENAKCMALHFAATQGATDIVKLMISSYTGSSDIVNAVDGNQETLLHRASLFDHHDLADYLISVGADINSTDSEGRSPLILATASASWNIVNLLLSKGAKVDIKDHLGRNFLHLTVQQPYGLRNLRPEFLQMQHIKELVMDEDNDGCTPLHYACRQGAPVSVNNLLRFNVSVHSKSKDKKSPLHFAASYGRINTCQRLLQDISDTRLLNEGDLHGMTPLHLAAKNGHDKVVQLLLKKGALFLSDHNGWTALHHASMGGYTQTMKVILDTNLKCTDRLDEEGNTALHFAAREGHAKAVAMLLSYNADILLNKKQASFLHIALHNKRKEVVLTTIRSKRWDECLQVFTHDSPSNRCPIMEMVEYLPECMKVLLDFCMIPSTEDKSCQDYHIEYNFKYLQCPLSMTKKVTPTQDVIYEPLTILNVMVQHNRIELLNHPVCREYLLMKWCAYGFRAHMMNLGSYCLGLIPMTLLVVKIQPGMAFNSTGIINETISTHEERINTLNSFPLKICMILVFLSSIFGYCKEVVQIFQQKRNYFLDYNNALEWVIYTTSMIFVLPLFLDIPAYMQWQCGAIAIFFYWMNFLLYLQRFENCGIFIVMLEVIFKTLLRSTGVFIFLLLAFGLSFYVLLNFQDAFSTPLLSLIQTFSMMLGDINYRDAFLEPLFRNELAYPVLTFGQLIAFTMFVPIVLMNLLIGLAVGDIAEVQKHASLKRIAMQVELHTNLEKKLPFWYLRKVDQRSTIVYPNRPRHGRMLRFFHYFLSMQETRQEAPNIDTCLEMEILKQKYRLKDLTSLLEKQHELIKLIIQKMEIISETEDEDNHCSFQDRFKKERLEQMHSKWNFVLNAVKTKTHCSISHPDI

CCCCOc1ccc(C(=O)CCN2CCCCC2)cc1 [DYCLONINE]
inhibition in vivo at 10 µM (Mus musculus [1]): ~41%
inhibition in vivo at 50 µM (Mus musculus [2]): 100%

C=C1CC[C@@H]2[C@](C)(CO)[C@H](O)CC[C@@]2(C)[C@@H]1/C=C/C1=CCOC1=O
inhibition [3]: Active
Activity [4]: 8.1
fold change (FC) [5]: 2
inhibition [6]: Active
inhibition [7]: inactive
Imax [8]: 49%
inhibition [9]: inactive
inhibition (Mus musculus [10]): Active
inhibition [11]: inactive
Activity (Mus musculus [12]): 59
IC50 [13]: 850 nM
Activity (Mus musculus [14]): 95
Activity (Mus musculus [15]): 129
Activity (Mus musculus [16]): 178
IC50 [17]: 800 nM
inhibition in vivo at 3 µM (Mus musculus [18]): ~40%
Imax [19]: 43%
Activity [20]: 10.6
inhibition [21]: Active
inhibition [22]: inactive
inhibition [23]: Active
Activity (HaCaT): Non-Toxic
inhibition [24]: inactive
inhibition in vivo at 100 µM (Mus musculus [25]): ~26%
IC50 [26]: 560 nM
Activity (Mus musculus [27]): 57
Imax [28]: 50%
inhibition [29]: Active
